Source: patent US20070270421A1, “Novel pyridine Derivative and Pyrimidine Derivative (1)” (priority 2004, published 2007)

What follows are molecules tested against T1, HGFR (His6-HGFR cytoplasmic domain) (Homo sapiens, UniProt P08581) (assay: Inhibitory activity against HGFR tyrosine kinase activity (HTRF)). Details: biotin-poly(GT), ATP, 30° C. 10 min, read-out: IC50 (concentration necessary to inhibit HGFR kinase activity by 50%).
T1 construct: made in house; host or cells: Spodoptera frugiperda Sf9 insect cells (baculovirus, pFastBac-HT)
T1 sequence (P08581 956-1390 limits assumed): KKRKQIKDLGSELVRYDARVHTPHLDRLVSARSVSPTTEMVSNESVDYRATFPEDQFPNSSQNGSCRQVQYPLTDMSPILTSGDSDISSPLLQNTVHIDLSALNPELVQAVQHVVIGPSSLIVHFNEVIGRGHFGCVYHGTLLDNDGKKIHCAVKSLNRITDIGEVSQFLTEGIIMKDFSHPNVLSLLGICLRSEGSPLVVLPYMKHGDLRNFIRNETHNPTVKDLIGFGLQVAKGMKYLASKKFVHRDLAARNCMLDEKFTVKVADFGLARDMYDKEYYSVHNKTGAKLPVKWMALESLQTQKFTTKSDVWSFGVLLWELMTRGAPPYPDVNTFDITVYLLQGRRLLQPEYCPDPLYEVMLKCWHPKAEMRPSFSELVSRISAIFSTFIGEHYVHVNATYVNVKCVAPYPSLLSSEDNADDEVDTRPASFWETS
Type: biochemical
From the text: The cytoplasmic domain of HGFR (Genbank Accession No. J02958) is a 1.3 kb DNA fragment beginning with Lys974 and including a stop codon, and described by Park et al. (Proc. Natl. Acad. Sci. U.S.A. 84(18), 6379-6383, 1987). The DNA fragment was isolated from the human placental cDNA library (purchased from Clontech) by PCR (TaKaRa Ex Taq™ Kit, purchased from TaKaRa) using two kinds of primers (SEQ ID NO: 1, 5′-[…]-3′ and SEQ ID NO: 2, 5′-[…]-3′, purchased from Invitrogen). The DNA fragment was cloned into a baculovirus transplace vector (pFastBac™-HT (purchased from GIBCO BRL)) to produce a recombinant construct. The construct was transfected into insect cells (Spodoptera frugiperda 9 (Sf9)) to produce a solution of HGFR transfected baculovirus (preparation of a recombinant baculovirus can be found in the standard text (Bac-to-Bac Baculovirus Expression System (GIBCO BRL)). The cloning of the other receptor tyrosine kinases and preparation of the recombinant baculovirus solutions were performed using a cytoplasmic fragment starting from Lys791 (VEGFR2, Genbank Accession No. L04947), a cytoplasmic fragment starting from Lys398 (FGFR1, Genbank Accession No. X52833) and a cytoplasmic fragment starting from Lys558 (PDGFRβ, Genbank Accession No. M21616) in stead of HGFR in the above method. EGFR was purchased from Sigma (Production No. E-2645).
To the suspension of Sf9 cells (3×10^8 cells) in SF-900II medium (purchased from Invitrogen) containing 2% FBS was added a solution of HGFR transfected baculovirus above (4 ml), followed by a shaking culture at 27° C. for 48 hrs. The cells infected with the HGFR transfected baculovirus were centrifuged at 1,000 rpm, 4° C. for 5 min to remove the supernatant. The precipitated infected cells were suspended in 80 ml of ice-cold PBS, and centrifuged at 1,000 rpm, 4° C. for 5 min to remove the supernatant. The precipitated infected cells were suspended in 40 ml of ice-cold Lysis Buffer (50 mM Tris-HCl (pH 8.5), 5 mM 2-mercaptoethanol, 100 mM KCl, 1 mM PMSF and 1% (v/v) NP-40). The suspension was centrifuged at 12,000 rpm, 4° C. for 30 min to provide a supernatant.
The supernatant was loaded onto an Ni-NTA agarose column (3 ml, purchased from Qiagen) equilibrated with 30 ml of Buffer A (20 mM Tris-HCl (pH 8.5), 5 mM 2-mercaptoethanol, 500 mM KCl, 20 mM imidazole and 10% (v/v) glycerol). The column was washed with 30 ml of Buffer A, 6 ml of Buffer B (20 mM Tris-HCl (pH 8.5), 5 mM 2-mercaptoethanol, 1 M KCl, and 10% (v/v) glycerol) and 6 ml of Buffer A in this order. Then, the column was eluted with 6 ml of Buffer C (20 mM Tris-HCl (pH 8.5), 5 mM 2-mercaptoethanol, 100 mM KCl, 100 mM imidazole, and 10% (v/v) glycerol) to provide a fraction. The fraction was entrapped in a dialysis membrane (purchased from Spectrum Laboratories), dialyzed at 4° C. overnight with 1 L of dialysis buffer (20 mM Tris-HCl (pH 7.5), 10% (v/v) glycerol, 1 mM dithiothreitol, 0.1 mM Na3VO4 and 0.1 mM EGTA), and stored at −80° C. until used. An aliquot of the dialyzed fraction was subjected to SDS electrophoresis, and then a recombinant protein (His6-HGFR, the HGFR cytoplasmic domain fused with six histidine at the N terminus) detected at a molecular weight of about 60 kDa when stained with Coomassie Brilliant Blue, was determined with regard to protein content using BSA (purchased from Sigma) as a standard. The VEGFR2 cytoplasmic domain, the FGFR1 cytoplasmic domain, and the PDGFRβ cytoplasmic domain were fused with six histidine at the N terminus by the similar method to produce respective recombinant proteins (His6-VEGFR2, His6-FGFR1, and His6-PDGFRβ). […]
An IC50 of 55 nM was found for `O=C(Cc1ccccc1)NC(=S)Nc1ccc(Oc2ccnc(NC(=O)N3CCN(CCN4CCC4)CC3)c2)c(F)c1` [Example 397, 4-[2-(Azetidin-1-yl)ethyl]piperazine-1-carboxylic acid {4-[2-fluoro-4-(3-phenylacetylthioureido)phenoxy]pyridin-2-yl}amide] in this work. An IC50 of 100 nM was found for `O=C(Cc1ccccc1)NC(=S)Nc1ccc(Oc2ccnc(NC(=O)N3CCC(N4CCOCC4)CC3)c2)c(F)c1` [Example 258, 4-{2-Fluoro-4-[3-(2-phenylacetyl)thioureido]phenoxy}-2-{[4-(morpholin-4-yl)piperidin-1-yl]carbonylamino}pyridine] in this work. An IC50 of 77 nM was found for `CN(C)C1CN(C2CCN(C(=O)Nc3cc(Oc4ccc(NC(=S)NC(=O)Cc5ccccc5)cc4F)ccn3)CC2)C1` [Example 373, 4-(3-Dimethylaminoazetidin-1-yl)piperidine-1-carboxylic acid {4-[2-fluoro-4-(3-phenylacetylthioureido)phenoxy]pyridin-2-yl}amide] in this work. An IC50 of 18 nM was found for `CN(C)C(=O)Nc1cc(Oc2ccc(NC(=O)NC(=O)Cc3ccc(F)cc3)cc2F)ncn1` [Example 51, 3-[6-(2-Fluoro-4-{3-[2-(4-fluorophenyl)acetyl]ureido}phenoxy)pyrimidin-4-yl]-1,1-dimethylurea] in this work. An IC50 of 28 nM was found for `CN1CC[C@H](N(C)C(=O)Nc2cc(Oc3ccc(NC(=S)NC(=O)Cc4ccc(F)cc4)c(F)c3)ncn2)C1` [Example 281, 3-[6-(3-Fluoro-4-{3-[2-(4-fluorophenyl)acetyl]thioureido}phenoxy)pyrimidin-4-yl]-1-methyl-1-[(3S)-1-methylpyrrolidin-3-yl]urea] in this work. An IC50 of 65 nM was found for `CN1CC(N2CCN(C(=O)Nc3cc(Oc4ccc(NC(=O)NC(=O)Cc5ccc(F)cc5)cc4)ccn3)CC2)C1` [Example 376, 4-(1-Methylazetidin-3-yl)piperazine-1-carboxylic acid [4-(4-{3-[2-(4-fluorophenyl)acetyl]ureido}phenoxy)pyridin-2-yl]amide] in this work. An IC50 of 62 nM was found for `CN(C)CC1CCN(C(=O)Nc2cc(Oc3ccc(NC(=O)NC(=O)Cc4ccc(F)cc4)cc3F)ccn2)CC1` [Example 347, 2-{[4-(Dimethylaminomethyl)piperidin-1-yl]carbonylamino}-4-(2-fluoro-4-{3-[2-(4-fluorophenyl)acetyl]ureido}phenoxy)pyridine] in this work. An IC50 of 75 nM was found for `CN(C)CCN1CCN(C(=O)Nc2cc(Oc3ccc(NC(=S)NC(=O)Cc4ccc(F)cc4)cc3)ccn2)CC1` [Example 327, 2-{[4-(2-Dimethylaminoethyl)piperazin-1-yl]carbonylamino}-4-(4-{3-[2-(4-fluorophenyl)acetyl]thioureido}phenoxy)pyridine] in this work. An IC50 of 67 nM was found for `CN1CCC(N(C)C(=O)Nc2cc(Oc3ccc(NC(=S)NC(=O)Cc4ccc(F)cc4)c(F)c3)ccn2)CC1` [Example 289, 3-[4-(3-Fluoro-4-{3-[2-(4-fluorophenyl)acetyl]thioureido}phenoxy)pyridin-2-yl]-1-methyl-1-(1-methylpiperidin-4-yl)urea] in this work. An IC50 of 74 nM was found for `O=C(Cc1ccc(F)cc1)NC(=O)Nc1ccc(Oc2ccnc(NC(=O)N3CCC(N4CCCC4)CC3)c2)c(F)c1` [Example 174, 4-(Pyrrolidin-1-yl)piperidine-1-carboxylic acid [4-(2-fluoro-4-{3-[2-(4-fluorophenyl)acetyl]ureido}phenoxy)pyridin-2-yl]amide] in this work. An IC50 of 130 nM was found for `O=C(Cc1ccc(F)cc1)NC(=O)Nc1ccc(Oc2ccnc(NC(=O)N3CCN(CCN4CCC4)CC3)c2)cc1` [Example 389, 4-[2-(Azetidin-1-yl)ethyl]piperazine-1-carboxylic acid [4-(4-{3-[2-(4-fluorophenyl)acetyl]ureido}phenoxy)pyridin-2-yl]amide] in this work. An IC50 of 83 nM was found for `O=C(Cc1ccccc1)NC(=S)Nc1ccc(Oc2cc(NC(=O)N3CCC(N4CCCC4)CC3)ncn2)c(F)c1` [Example 8, 4-(Pyrrolidin-1-yl)piperidine-1-carboxylic acid {6-[2-fluoro-4-(3-phenylacetylthioureido)phenoxy]pyrimidin-4-yl}amide] in this work. An IC50 of 87 nM was found for `O=C(CC(=O)Nc1ccc(Oc2ccnc(NC(=O)N3CCCCC3)c2)cc1Cl)Nc1ccc(F)cc1` [Example 65, N-(2-Chloro-4-{2-[(piperidine-1-carbonyl)amino]pyridin-4-yloxy}phenyl)-N′-(4-fluorophenyl)malonamide] in this work. An IC50 of 18 nM was found for `CN(C)C(=O)Nc1cc(Oc2ccc(NC(=S)NC(=O)Cc3ccc(F)cc3)cc2F)ncn1` [Example 7, 3-[6-(2-Fluoro-4-{3-[2-(4-fluorophenyl)acetyl]thioureido}phenoxy)pyrimidin-4-yl]-1,1-dimethylurea] in this work. An IC50 of 120 nM was found for `O=C(Cc1ccc(F)cc1)NC(=O)Nc1ccc(Oc2ccnc(NC(=O)N3CCC(CN4CCCC4)CC3)c2)cc1` [Example 390, 4-(Pyrrolidin-1-ylmethyl)piperidine-1-carboxylic acid [4-(4-{3-[2-(4-fluorophenyl)acetyl]ureido}phenoxy)pyridin-2-yl]amide] in this work. An IC50 of 31 nM was found for `CC(=O)N1CCC(N(C)C(=O)Nc2cc(Oc3ccc(NC(=S)NC(=O)Cc4ccc(F)cc4)cc3F)ncn2)CC1` [Example 314, 1-(1-Acetylpiperidin-4-yl)-3-[6-(2-fluoro-4-{3-[2-(4-fluorophenyl)acetyl]thioureido}phenoxy)pyrimidin-4-yl]-1-methylurea] in this work. An IC50 of under 30 nM was found for `O=C(CC(=O)NC1CCCCCC1)Nc1ccc(Oc2ccnc(NC(=O)N3CCCC3)c2)c(F)c1` [Example 61, N-Cycloheptyl-N′-(3-fluoro-4-{2-[(pyrrolidine-1-carbonyl)amino]pyridin-4-yloxy}phenyl)malonamide] in this work. An IC50 of 25 nM was found for `CN(C)C[C@@H]1CCN(C(=O)Nc2cc(Oc3ccc(NC(=S)NC(=O)Cc4ccc(F)cc4)cc3F)ncn2)C1` [Example 179, 4-{[(3S)-3-(Dimethylaminomethyl)pyrrolidin-1-yl]carbonylamino}-6-(2-fluoro-4-{3-[2-(4-fluorophenyl)acetyl]thioureido}phenoxy)pyrimidine] in this work. An IC50 of 110 nM was found for `CN(C)C1CN(C2CCN(C(=O)Nc3cc(Oc4ccc(NC(=S)NC(=O)Cc5ccc(F)cc5)c(F)c4)ccn3)CC2)C1` [Example 189, 4-[3-(Dimethylamino)azetidin-1-yl]piperidine-1-carboxylic acid [4-(3-fluoro-4-{3-[2-(4-fluorophenyl)acetyl]thioureido}phenoxy)pyridin-2-yl]amide] in this work. An IC50 of 130 nM was found for `CN(C)CCN1CCN(C(=O)Nc2cc(Oc3ccc(NC(=O)NC(=O)Cc4ccc(F)cc4)cc3F)ccn2)CC1` [Example 362, 2-{[4-(2-Dimethylaminoethyl)piperazin-1-yl]carbonylamino}-4-(2-fluoro-4-{3-[2-(4-fluorophenyl)acetyl]ureido}phenoxy)pyridine] in this work. An IC50 of 120 nM was found for `CN1CCC(N2CCN(C(=O)Nc3cc(Oc4ccc(NC(=O)NC(=O)Cc5ccc(F)cc5)cc4F)ccn3)CC2)CC1` [Example 345, 4-(2-Fluoro-4-{3-[2-(4-fluorophenyl)acetyl]ureido}phenoxy)-2-{[4-(1-methylpiperidin-4-yl)piperazin-1-yl]carbonylamino}pyridine] in this work. An IC50 of 56 nM was found for `O=C(Cc1ccccc1)NC(=S)Nc1ccc(Oc2cc(NC(=O)N3CCC(CN4CCC4)CC3)ncn2)c(F)c1` [Example 393, 4-(Azetidin-1-ylmethyl)piperidine-1-carboxylic acid {6-[2-fluoro-4-(3-phenylacetylthioureido)phenoxy]pyrimidin-4-yl}amide] in this work.
